Data reported in PubChem BioAssay AID1963422 (Molecular Pharmacology Branch, DTP, NCI, 2024).

Test system: 463943-066-T-J2-PDC complex spheroid growth
Assay: Anticancer human tumor 463943-066-T-J2-PDC patient-derived colon adenocarcinoma cell line growth inhibition [Asc]
Conditions: for IC50: curve of first compound; for viability, T/C: stronger effect = lower value
How it was run: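 Concentration series start at each agent's clinical Cmax, or at 10 microM when none is established, and drop in half-log steps; agents are applied alone or together to complex spheroids built with HUVEC and hMSC.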

[1] = second compound 0.0316 µM, first compound 0.00316 µM
[2] = second compound 0.0316 µM, first compound 0.01 µM
[3] = second compound 0.0316 µM, first compound 0.0316 µM
[4] = second compound 0.0316 µM, first compound 0.1 µM
[5] = second compound 0.1 µM, first compound 0.00316 µM
[6] = second compound 0.1 µM, first compound 0.01 µM
[7] = second compound 0.1 µM, first compound 0.0316 µM
[8] = second compound 0.1 µM, first compound 0.1 µM
[9] = second compound 0.316 µM, first compound 0.00316 µM
[10] = second compound 0.316 µM, first compound 0.01 µM
[11] = second compound 0.316 µM, first compound 0.0316 µM
[12] = second compound 0.316 µM, first compound 0.1 µM
[13] = second compound 1 µM, first compound 0.00316 µM
[14] = second compound 1 µM, first compound 0.01 µM
[15] = second compound 1 µM, first compound 0.0316 µM
[16] = second compound 1 µM, first compound 0.1 µM
[17] = second compound 3.16 µM, first compound 0.00316 µM
[18] = second compound 3.16 µM, first compound 0.01 µM
[19] = second compound 3.16 µM, first compound 0.0316 µM
[20] = second compound 3.16 µM, first compound 0.1 µM
[21] = second compound 10 µM, first compound 0.00316 µM
[22] = second compound 10 µM, first compound 0.01 µM
[23] = second compound 10 µM, first compound 0.0316 µM
[24] = second compound 10 µM, first compound 0.1 µM
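Note: compound exposure lasted 7 days.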
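Throughout, for viability, T/C: 100% = DMSO vehicle control wells.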

**Q.** What does the source list for `COc1c(OCCCN2CCOCC2)ccc2c3n(c(=NC(=O)c4cnc(N)nc4)nc12)CCN3` + Cc1c(S(C)(=O)=O)c(-c2cc(F)cc(N3CCN(c4ccc(NS(=O)(=O)c5ccc(NC(CCN6CCC(C(=O)OCCCP(=O)(O)O)CC6)CSc6ccccc6)c(S(=O)(=O)C(F)(F)F)c5)cc4)CC3)c2)c(-c2ccc(Cl)cc2)n1C(C)C?
**A.** IC50 (second compound 0.0316 µM): 442 nM; IC50 (second compound 0.1 µM): 406 nM; IC50 (second compound 0.316 µM): 215 nM; IC50 (second compound 1 µM): 157 nM; IC50 (second compound 3.16 µM): 27 nM; IC50 (second compound 10 µM): < 3.16 nM; viability, T/C [1]: 95.3%; viability, T/C [2]: 91.8%; viability, T/C [3]: 83.6%; viability, T/C [4]: 64.6%; viability, T/C (second compound 0.0316 µM, first compound 0.316 µM): 57.8%; viability, T/C (second compound 0.0316 µM, first compound 1 µM): 38.4%; viability, T/C [5]: 94.4%; viability, T/C [6]: 86%; viability, T/C [7]: 79.3%; viability, T/C [8]: 65.9%; viability, T/C (second compound 0.1 µM, first compound 0.316 µM): 55.7%; viability, T/C (second compound 0.1 µM, first compound 1 µM): 36.2%; viability, T/C [9]: 87.7%; viability, T/C [10]: 92.6%; viability, T/C [11]: 69%; viability, T/C [12]: 57.5%; viability, T/C (second compound 0.316 µM, first compound 0.316 µM): 49.7%; viability, T/C (second compound 0.316 µM, first compound 1 µM): 34.1%; viability, T/C [13]: 78.9%; viability, T/C [14]: 74.5%; viability, T/C [15]: 61.8%; viability, T/C [16]: 51.6%; viability, T/C (second compound 1 µM, first compound 0.316 µM): 49.5%; viability, T/C (second compound 1 µM, first compound 1 µM): 27.1%; viability, T/C [17]: 63.6%; viability, T/C [18]: 58.8%; viability, T/C [19]: 46%; viability, T/C [20]: 41%; viability, T/C (second compound 3.16 µM, first compound 0.316 µM): 33.6%; viability, T/C (second compound 3.16 µM, first compound 1 µM): 21.5%; viability, T/C [21]: 48.1%; viability, T/C [22]: 44.7%; viability, T/C [23]: 41.2%; viability, T/C [24]: 35.6%; viability, T/C (second compound 10 µM, first compound 0.316 µM): 35.6%; viability, T/C (second compound 10 µM, first compound 1 µM): 21.4%

**Q.** `NC1CCC(NC2CC2c2ccccc2)CC1` (centres undefined) + Cc1c(S(C)(=O)=O)c(-c2cc(F)cc(N3CCN(c4ccc(NS(=O)(=O)c5ccc(NC(CCN6CCC(C(=O)OCCCP(=O)(O)O)CC6)CSc6ccccc6)c(S(=O)(=O)C(F)(F)F)c5)cc4)CC3)c2)c(-c2ccc(Cl)cc2)n1C(C)C was tested. Which IC50 (second compound 0.0316 µM) did it give?
**A.** > 100 nM

**Q.** What about the IC50 (second compound 0.1 µM) of the same molecule?
**A.** > 100 nM

**Q.** What about the IC50 (second compound 0.316 µM) of the same molecule?
**A.** > 100 nM

**Q.** And the IC50 (second compound 1 µM)?
**A.** > 100 nM

**Q.** And the IC50 (second compound 3.16 µM)?
**A.** > 100 nM

**Q.** And the IC50 (second compound 10 µM)?
**A.** < 0.316 nM

**Q.** And the viability, T/C (second compound 0.0316 µM, first compound 0.000316 µM)?
**A.** 88%

**Q.** And the viability, T/C (second compound 0.0316 µM, first compound 0.001 µM)?
**A.** 82.3%

**Q.** And the viability, T/C [1]?
**A.** 81.4%

**Q.** And the viability, T/C [2]?
**A.** 84.3%

**Q.** And the viability, T/C [3]?
**A.** 88.5%

**Q.** And the viability, T/C [4]?
**A.** 80.5%

**Q.** And the viability, T/C (second compound 0.1 µM, first compound 0.000316 µM)?
**A.** 94.4%

**Q.** And the viability, T/C (second compound 0.1 µM, first compound 0.001 µM)?
**A.** 85.5%

**Q.** And the viability, T/C [5]?
**A.** 95.6%

**Q.** And the viability, T/C [6]?
**A.** 82.7%

**Q.** What about the viability, T/C [7] of the same molecule?
**A.** 87.7%

**Q.** What about the viability, T/C [8] of the same molecule?
**A.** 76.9%

**Q.** And the viability, T/C (second compound 0.316 µM, first compound 0.000316 µM)?
**A.** 88.1%

**Q.** What about the viability, T/C (second compound 0.316 µM, first compound 0.001 µM) of the same molecule?
**A.** 81.7%

**Q.** What about the viability, T/C [9] of the same molecule?
**A.** 77.9%

**Q.** What about the viability, T/C [10] of the same molecule?
**A.** 85%

**Q.** And the viability, T/C [11]?
**A.** 80%

**Q.** What about the viability, T/C [12] of the same molecule?
**A.** 80.2%

**Q.** What about the viability, T/C (second compound 1 µM, first compound 0.000316 µM) of the same molecule?
**A.** 75.3%

**Q.** What about the viability, T/C (second compound 1 µM, first compound 0.001 µM) of the same molecule?
**A.** 72.5%

**Q.** And the viability, T/C [13]?
**A.** 73.8%

**Q.** And the viability, T/C [14]?
**A.** 71.9%

**Q.** What about the viability, T/C [15] of the same molecule?
**A.** 71.9%

**Q.** And the viability, T/C [16]?
**A.** 68.4%

**Q.** And the viability, T/C (second compound 3.16 µM, first compound 0.000316 µM)?
**A.** 59.3%

**Q.** And the viability, T/C (second compound 3.16 µM, first compound 0.001 µM)?
**A.** 58.6%

**Q.** What about the viability, T/C [17] of the same molecule?
**A.** 59.3%

**Q.** And the viability, T/C [18]?
**A.** 58.6%

**Q.** What about the viability, T/C [19] of the same molecule?
**A.** 60.1%

**Q.** And the viability, T/C [20]?
**A.** 56.1%

**Q.** What about the viability, T/C (second compound 10 µM, first compound 0.000316 µM) of the same molecule?
**A.** 45.1%

**Q.** What about the viability, T/C (second compound 10 µM, first compound 0.001 µM) of the same molecule?
**A.** 48.8%

**Q.** And the viability, T/C [21]?
**A.** 51.6%

**Q.** What about the viability, T/C [22] of the same molecule?
**A.** 49.1%

**Q.** And the viability, T/C [23]?
**A.** 52.3%

**Q.** And the viability, T/C [24]?
**A.** 52.6%
